Our source for the relative viability values is the supplement of paper PMC10307832.

What all share (experiment): relative viability (nuclei count vs DMSO), 5 days (fraction); higher = more cells survive
Compound in experiment [1]: CCC1=CN=CN=C1N2CCN(CC2)CC3=NC4=C(N3)C=C(C=C4)C(F)(F)F + CC(C)C[C@H](NC(=O)[C@H](Cc1ccccc1)NC(=O)c1cnccn1)B(O)O [Bortezomib] (partner 0.002 µM)
In outline: (§1)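 Dosing by pin tool came one day after lung cancer cell lines were seeded in 1536-well plates, using either one drug or a fixed anchor-drug dose plus five library-drug doses (not always all listed) in √10 steps. After 5 days, nuclei were counted on 4× images. Relative viability is treated-well nuclei count divided by vehicle-well nuclei count, and values are medians of duplicate plates.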

Compound in experiment [2]: CCC1=CN=CN=C1N2CCN(CC2)CC3=NC4=C(N3)C=C(C=C4)C(F)(F)F + Cc1nc(Nc2ncc(C(=O)Nc3c(C)cccc3Cl)s2)cc(N2CCN(CCO)CC2)n1 [Dasatinib] (partner 0.075 µM)
In outline: as §1

Compound in experiment [3]: CCC1=CN=CN=C1N2CCN(CC2)CC3=NC4=C(N3)C=C(C=C4)C(F)(F)F + N=C(N)NC(=N)NCCc1ccccc1 [Phenformin] (partner 250 µM)
The essentials: as §1

Compound in experiment [4]: CCn1c(-c2nonc2N)nc2cnc(Oc3cccc(NC(=O)c4ccc(OCCN5CCOCC5)cc4)c3)cc21 + COc1cc2c(Oc3ccc(NC(=O)C4(C(=O)Nc5ccc(F)cc5)CC4)cc3F)ccnc2cc1OCCCN1CCOCC1 [Foretinib] (partner 0.25 µM)
In outline: as §1

On to UMC-11, for which the relative viability in experiment [1] (first compound 0.04 µM) amounted to 0.703; in experiment [1] (first compound 0.1265 µM), 0.672; in experiment [1] (first compound 0.4 µM) it was 0.554; in experiment [1] (first compound 1.265 µM) it was 0.701; in experiment [1] (first compound 4 µM), 0.707; in experiment [2] (first compound 0.04 µM) it was 0.531. For the same cell line, the relative viability was determined as 0.436 in experiment [2] (first compound 0.1265 µM); 0.42 in experiment [2] (first compound 0.4 µM); 0.398 in experiment [2] (first compound 1.265 µM); 0.492 in experiment [2] (first compound 4 µM); 0.327 in experiment [3] (first compound 0.04 µM); 0.3 in experiment [3] (first compound 0.1265 µM). The relative viability in experiment [3] (first compound 0.4 µM) was 0.319; in experiment [3] (first compound 1.265 µM), 0.279; in experiment [3] (first compound 4 µM), 0.294; in experiment [4] (first compound 0.04 µM), 1.04; in experiment [4] (first compound 0.1265 µM), 0.903; in experiment [4] (first compound 0.4 µM), 0.68. Besides, the relative viability came to 0.245 in experiment [4] (first compound 1.265 µM) and 0.186 in experiment [4] (first compound 4 µM).
